The target in test [1] is T1, Estrogen receptor (Homo sapiens) (UniProt P03372).
T1 sequence (whole entry): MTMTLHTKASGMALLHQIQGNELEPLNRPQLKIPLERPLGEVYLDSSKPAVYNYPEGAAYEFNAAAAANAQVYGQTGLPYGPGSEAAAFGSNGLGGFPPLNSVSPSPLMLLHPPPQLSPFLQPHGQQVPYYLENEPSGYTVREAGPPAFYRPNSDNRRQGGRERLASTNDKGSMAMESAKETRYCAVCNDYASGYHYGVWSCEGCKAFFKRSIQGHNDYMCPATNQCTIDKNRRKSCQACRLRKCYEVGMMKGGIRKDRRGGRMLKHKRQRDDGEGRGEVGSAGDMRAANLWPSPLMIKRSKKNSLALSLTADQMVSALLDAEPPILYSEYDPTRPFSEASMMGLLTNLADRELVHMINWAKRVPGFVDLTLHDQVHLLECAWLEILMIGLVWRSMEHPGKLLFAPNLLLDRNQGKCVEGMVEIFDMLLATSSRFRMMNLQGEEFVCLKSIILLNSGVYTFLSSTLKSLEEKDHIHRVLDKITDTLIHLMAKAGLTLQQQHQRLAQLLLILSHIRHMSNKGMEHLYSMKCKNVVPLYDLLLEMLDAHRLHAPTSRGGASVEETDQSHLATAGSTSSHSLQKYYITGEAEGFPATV
The test can be described thus: Displacement of radioligand from human Estrogen receptor alpha, percent inhibition at 10 uM.

In a further test the target is T2, Androgen receptor (Homo sapiens, UniProt P10275).
T2 sequence (P10275 whole entry): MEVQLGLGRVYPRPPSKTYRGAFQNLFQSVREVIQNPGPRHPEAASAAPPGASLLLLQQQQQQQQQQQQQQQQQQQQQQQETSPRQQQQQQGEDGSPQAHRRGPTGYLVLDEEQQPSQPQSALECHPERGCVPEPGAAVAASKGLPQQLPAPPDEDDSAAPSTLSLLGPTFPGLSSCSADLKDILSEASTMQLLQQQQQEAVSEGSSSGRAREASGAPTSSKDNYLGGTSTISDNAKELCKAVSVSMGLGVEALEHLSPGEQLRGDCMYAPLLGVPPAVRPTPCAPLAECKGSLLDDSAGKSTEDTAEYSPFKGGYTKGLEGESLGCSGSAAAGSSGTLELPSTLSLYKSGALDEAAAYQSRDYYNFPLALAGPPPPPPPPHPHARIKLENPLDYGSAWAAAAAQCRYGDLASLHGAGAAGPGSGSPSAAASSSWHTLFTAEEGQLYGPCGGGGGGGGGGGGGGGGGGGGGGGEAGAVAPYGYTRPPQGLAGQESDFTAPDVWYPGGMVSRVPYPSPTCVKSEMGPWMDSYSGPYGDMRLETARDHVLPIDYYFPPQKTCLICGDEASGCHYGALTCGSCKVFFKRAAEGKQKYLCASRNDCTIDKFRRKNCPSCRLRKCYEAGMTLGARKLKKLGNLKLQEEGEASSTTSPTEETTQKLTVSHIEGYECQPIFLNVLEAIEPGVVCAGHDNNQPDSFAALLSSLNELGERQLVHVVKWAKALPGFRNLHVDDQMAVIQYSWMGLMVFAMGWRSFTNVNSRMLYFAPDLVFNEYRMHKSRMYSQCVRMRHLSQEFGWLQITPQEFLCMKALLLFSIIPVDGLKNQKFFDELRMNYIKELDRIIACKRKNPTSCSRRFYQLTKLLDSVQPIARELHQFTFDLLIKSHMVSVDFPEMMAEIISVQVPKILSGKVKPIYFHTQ
Put plainly: Displacement of [3H]DHT from human Androgen receptor. For orientation: In a radioligand displacement assay an active substance lowers the binding of a labelled ligand.

In another test the target is T3, Glucocorticoid receptor (Homo sapiens, UniProt P04150).
T3 sequence (P04150 whole entry): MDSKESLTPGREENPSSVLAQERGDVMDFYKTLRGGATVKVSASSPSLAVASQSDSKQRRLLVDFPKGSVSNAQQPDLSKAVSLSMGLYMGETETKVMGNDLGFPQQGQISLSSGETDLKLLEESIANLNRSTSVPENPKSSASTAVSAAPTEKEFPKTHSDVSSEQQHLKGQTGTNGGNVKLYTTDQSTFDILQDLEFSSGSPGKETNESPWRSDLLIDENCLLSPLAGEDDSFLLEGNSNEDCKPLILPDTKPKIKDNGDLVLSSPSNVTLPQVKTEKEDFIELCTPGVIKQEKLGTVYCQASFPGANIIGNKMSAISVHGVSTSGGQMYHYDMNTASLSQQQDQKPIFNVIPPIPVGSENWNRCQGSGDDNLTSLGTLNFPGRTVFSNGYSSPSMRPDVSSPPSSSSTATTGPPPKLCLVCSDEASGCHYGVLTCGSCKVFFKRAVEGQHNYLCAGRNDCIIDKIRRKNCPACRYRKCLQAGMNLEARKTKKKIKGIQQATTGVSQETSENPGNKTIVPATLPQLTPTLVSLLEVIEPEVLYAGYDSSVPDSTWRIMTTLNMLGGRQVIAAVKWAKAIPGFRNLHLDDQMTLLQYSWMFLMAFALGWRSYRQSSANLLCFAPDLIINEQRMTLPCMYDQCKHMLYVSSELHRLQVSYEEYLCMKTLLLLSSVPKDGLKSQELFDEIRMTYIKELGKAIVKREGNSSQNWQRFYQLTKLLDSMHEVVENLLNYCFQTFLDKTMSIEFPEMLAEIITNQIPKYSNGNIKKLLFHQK
Put plainly: Displacement of 10 nM [3H]dexamethasone from human Glucocorticoid receptor.

In the next test the target is Estrogen receptor beta (Homo sapiens, UniProt Q92731). Put plainly: Displacement of radioligand from human Estrogen receptor beta, percent inhibition at 10 uM.
Chain of Estrogen receptor beta (Q92731 whole entry): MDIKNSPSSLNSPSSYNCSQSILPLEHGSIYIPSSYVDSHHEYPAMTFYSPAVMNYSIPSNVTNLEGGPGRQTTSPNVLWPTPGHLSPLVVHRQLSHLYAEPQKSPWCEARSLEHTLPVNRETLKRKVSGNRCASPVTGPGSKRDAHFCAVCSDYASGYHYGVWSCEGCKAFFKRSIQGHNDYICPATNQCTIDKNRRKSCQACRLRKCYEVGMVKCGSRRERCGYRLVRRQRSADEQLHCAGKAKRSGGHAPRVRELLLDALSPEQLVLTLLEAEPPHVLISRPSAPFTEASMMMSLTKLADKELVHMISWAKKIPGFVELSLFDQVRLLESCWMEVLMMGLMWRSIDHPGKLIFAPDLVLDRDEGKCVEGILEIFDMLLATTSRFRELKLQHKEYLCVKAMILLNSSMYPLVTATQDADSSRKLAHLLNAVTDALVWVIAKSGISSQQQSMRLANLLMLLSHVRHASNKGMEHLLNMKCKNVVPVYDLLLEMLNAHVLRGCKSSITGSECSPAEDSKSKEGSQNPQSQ

In turn, `CC#C[C@]1(O)CCC2C3CCC4=CC(=O)CC[C@]4(Cc4ccc(C)cc4)C3=CC[C@@]21C` (some centres undefined) showed an inhibition in test [1] of 20%. The Ki came out at 90 nM at Androgen receptor and 0.1 nM on Glucocorticoid receptor.
`O=C1CC[C@@]2(Cc3ccccc3)c3ccc(O)cc3CC[C@@H]2C1`: the figures for the inhibition (in test [1]; on Estrogen receptor beta) were 45% and 54%, respectively. The Ki is 1300 nM on Androgen receptor and 5.96 nM on Glucocorticoid receptor.
`Oc1ccc2c(c1)CC[C@@H]1C[C@@](O)(C#CCl)CC[C@@]21Cc1ccccc1`: the inhibition in test [1] was 62%; on Estrogen receptor beta, 75%. In addition, the values for the Ki at Androgen receptor and on Glucocorticoid receptor were 130 nM and 0.1 nM, respectively.
For `CC#C[C@@]1(O)CC[C@@]2(Cc3ccccc3)c3ccc(O)cc3CC[C@@H]2C1`, the inhibition was determined as 50% in test [1] and 57% on Estrogen receptor beta. Besides, on Glucocorticoid receptor, the inhibition constant (Ki) turned out to be 0.17 nM.

By inhibition is commonly meant the change of the read-out against control, counted positive when it falls. For orientation: Ki means the dissociation constant of the complex between target and ligand, obtained from inhibition or displacement.

The values are drawn from ChEMBL document CHEMBL1135457 (J Med Chem, 2002).
